Activity calls are given as the source filed them. The rule behind the calls is not given here.
Legend:
[1] = tested on: Quadruplex DNA; assay: Thermal stabilization of human Tel23-p G4 quadruplex DNA assessed as change in melting temperature (deltaT1/2) incubated for 10 mins by circular dichroism spectroscopic analysis (reference value: 68.2 +/- 0.1 degreeC); assay type: nucleic-acid assay
[2] = tested on: Quadruplex DNA; assay: Thermal stabilization of human Tel26-hy G4 quadruplex DNA assessed as change in melting temperature (deltaT1/2) incubated for 10 mins by circular dichroism spectroscopic analysis (reference value: 55.4 +/- 0.1 degreeC); assay type: nucleic-acid assay
[3] = tested on: Quadruplex DNA; assay: Thermal stabilization of human c-Kit2 G4 quadruplex DNA assessed as change in melting temperature (deltaT1/2) incubated for 10 mins by circular dichroism spectroscopic analysis (reference value: 62.4 +/-0.1 degreeC); assay type: nucleic-acid assay
[4] = tested on: Quadruplex DNA; assay: Thermal stabilization of human c-Myc G4 quadruplex DNA assessed as change in melting temperature (deltaT1/2) incubated for 10 mins by circular dichroism spectroscopic analysis (reference value: 70.5 +/- 0.1 degreeC); assay type: nucleic-acid assay
[5] = tested on: Quadruplex DNA; assay: Thermal stabilization of human Tel23-hy G4 quadruplex DNA assessed as change in melting temperature (deltaT1/2) incubated for 10 mins by circular dichroism spectroscopic analysis (reference value: 48 +/- 0.1 degreeC); assay type: nucleic-acid assay
[6] = tested on: HCT-116; assay: Induction of DNA damage in human HCT-116 cells assessed as increase in 53BP1 foci positive cells incubated for 24 hrs by immunofluorescence staining based analysis; assay type: functional, cell-based
[7] = tested on: HCT-116; assay: Induction of DNA damage in human HCT-116 cells assessed as increase in gammaH2AX level incubated for 24 hrs by immunofluorescence staining based analysis; assay type: functional, cell-based

SMILES | ΔTm [1] | ΔTm [2] | ΔTm [3] | ΔTm [4] | ΔTm [5] | Activity [6] | Activity [7]
COc1ccc2cc3[n+](cc2c1OC)CCc1cc2c(cc1-3)OCO2 | > 20 °C | 6.8 °C | > 20 °C | 15.5 °C | 12.7 °C | – | –
CC[C@@]1(O)C(=O)OCc2c1cc1n(c2=O)Cc2cc3ccccc3nc2-1 | – | – | – | – | – | Active | Active
